How the values were obtained:
[1] = test system: Panc-1 and MIA PaCa-2 cells; experiment: Cell viability, Cell Counting Kit-8 (CCK8); format: cell-based, human; conditions: 10 μM BafA1 in combination with 10 μM gemcitabine, 48 hours, compared to gemcitabine alone
Experimental: 5×10^3 pancreatic cancer cells per well (Panc-1, MIA PaCa-2, or COLO 357) were plated in 96-well plates and grown at 37° C. for 24 hours. Cells were then transfected with 20 nM mimic control or miR-29a mimic using DharmaFECT® 1 for 24 hours. Transfection media was then removed and replaced with complete media, and cells were allowed to recover for 24 hours and subsequently treated with varying concentrations of gemcitabine (0 μM, 0.1 μM, 1 μM, 10 μM, 100 μM). Cell viability was measured at 72 hours post-gemcitabine treatment by adding 10 μl Cell Counting Kit-8 (CCK8) reagent (Dojindo, CK04) and absorbance was measured at 450 nm. For cell viability with Chloroquine (CQ) and BafilomycinA1 (BafA1) treatment, cells were treated with 25 μM CQ (Sigma Aldrich, C6628) or 10 μM BafA1 (Sigma Aldrich, B1793) in combination with 10 μM gemcitabine for 48 hours, and viability was measured using CCK8 kit as described above.

[2] = test system: Panc-1 cells; experiment: Autophagy flux immunoblotting (LC3B, p62); format: cell-based, human; conditions: 25 μM CQ added to control mimic cells
Experimental: Cells were then transfected with 10 nM control or miR-29a mimics using DharmaFECT®. 24 hours post-transfection, cells were treated with 25 μM CQ in complete media for 3-6 hours. Subsequently, total proteins were harvested and subjected to western blot analysis as described above.

| Compound | cancer cell viability [1] | LC3BI and II and p62 accumulation [2] |
| --- | --- | --- |
| CO/C1=C\C(C)=C\[C@@H](C)[C@@H](O)[C@@H](C)C/C(C)=C/C=C/[C@H](OC)[C@@H]([C@@H](C)[C@@H](O)[C@H](C)[C@@]2(O)C[C@@H](O)[C@H](C)[C@@H](C(C)C)O2)OC1=O [BafA1, BafilomycinA1] | decreased cancer cell viability | – |
| CCN(CC)CCCC(C)Nc1ccnc2cc(Cl)ccc12 (centres unmarked) [CQ, Chloroquine] | – | robust net increase |

— patent US10801025B2, “MicroRNA therapy for pancreatic cancer” (Indiana University Research and Technology Corporation, priority 2016, dated 2020)
